ChEMBL document CHEMBL6121031, “Optimizing Linezolid: Transforming It into a Selective MAO-B Inhibitor via a Toxicity-to-Activity Optimization Approach” (ACS Med Chem Lett, 2025)

Experiments:
[1] = biological target: T1, Amine oxidase [flavin-containing] A (Homo sapiens, UniProt P21397); assay: Inhibition of recombinant human MAO-A using kynuramine as substrate incubated for 15 mins by absorbance based assay
T1 sequence (P21397 whole entry): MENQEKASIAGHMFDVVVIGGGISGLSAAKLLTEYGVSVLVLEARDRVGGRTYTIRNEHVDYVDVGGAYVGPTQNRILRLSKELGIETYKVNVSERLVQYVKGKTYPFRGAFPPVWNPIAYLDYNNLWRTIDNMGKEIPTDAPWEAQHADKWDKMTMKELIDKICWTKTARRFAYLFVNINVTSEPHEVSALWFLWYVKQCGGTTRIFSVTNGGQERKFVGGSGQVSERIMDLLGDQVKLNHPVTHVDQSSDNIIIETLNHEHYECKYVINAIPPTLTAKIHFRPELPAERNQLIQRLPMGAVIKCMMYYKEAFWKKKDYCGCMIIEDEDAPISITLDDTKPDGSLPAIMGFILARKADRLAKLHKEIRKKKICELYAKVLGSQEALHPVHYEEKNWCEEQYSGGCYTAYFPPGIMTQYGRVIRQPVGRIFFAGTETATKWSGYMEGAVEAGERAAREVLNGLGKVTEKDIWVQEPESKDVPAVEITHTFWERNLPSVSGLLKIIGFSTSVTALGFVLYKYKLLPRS

[2] = biological target: T2, Amine oxidase [flavin-containing] B (Homo sapiens, UniProt P27338)
T2 sequence (P27338 whole entry): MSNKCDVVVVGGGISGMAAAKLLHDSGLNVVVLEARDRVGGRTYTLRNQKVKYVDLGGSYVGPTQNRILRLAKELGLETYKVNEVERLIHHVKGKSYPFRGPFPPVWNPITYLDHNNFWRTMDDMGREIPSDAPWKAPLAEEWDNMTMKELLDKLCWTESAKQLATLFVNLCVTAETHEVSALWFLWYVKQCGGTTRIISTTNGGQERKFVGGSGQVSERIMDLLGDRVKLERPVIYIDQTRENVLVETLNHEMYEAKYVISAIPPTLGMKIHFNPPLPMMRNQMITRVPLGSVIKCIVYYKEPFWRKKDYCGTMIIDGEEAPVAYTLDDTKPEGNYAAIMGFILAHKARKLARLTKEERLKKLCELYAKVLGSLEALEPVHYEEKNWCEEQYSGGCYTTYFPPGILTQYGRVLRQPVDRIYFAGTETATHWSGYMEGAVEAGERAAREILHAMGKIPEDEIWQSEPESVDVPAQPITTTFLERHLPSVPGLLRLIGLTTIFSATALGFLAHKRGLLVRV

[3] = test system: Mycobacterium tuberculosis; assay: Antimycobacterial activity against Mycobacterium tuberculosis H37Rv measured after 7 days by MABA assay; type: functional; conditions: 168 h, time 7 day
[4] = Cytotoxicity against human THP-1 cells incubated for 3 days by Cell Titer-Glo Luminescent Cell Viability Assay; type: toxicity, cell-based
[5] = biological target: T2, Amine oxidase [flavin-containing] B; assay: Reversible competitive inhibition of human MAO-B assessed as residual activity after dialysis at 0.068 uM incubated for 30 mins relative to control; conditions: 0.5 h, read-out: Activity
[6] = biological target: T2, Amine oxidase [flavin-containing] B; assay: Potency index, ratio of Pargyline IC50 to test compound IC50 for inhibition of recombinant human MAO-B using benzylamine as substrate incubated for 15 mins by absorbance based assay; conditions: 0.25 h
[7] = biological target: T2, Amine oxidase [flavin-containing] B; assay: Reversible competitive inhibition of human MAO-B assessed as residual activity before dialysis at 0.068 uM incubated for 30 mins relative to control; conditions: 0.5 h, read-out: Activity
[8] = biological target: T2, Amine oxidase [flavin-containing] B; assay: Potency index, ratio of Clorgyline IC50 to test compound IC50 for inhibition of recombinant human MAO-B using benzylamine as substrate incubated for 15 mins by absorbance based assay; conditions: 0.25 h
[9] = biological target: T2, Amine oxidase [flavin-containing] B; conditions: 0.5 h

SMILES | IC50 [1] [µM] | IC50 [2] [µM] | MIC [3] [µg/mL] | IC50 at 3 days [4] [µg/mL] | activity at 0.068 µM [5] [%] | Ratio IC50 [6] | activity at 0.068 µM [7] [%] | Ratio IC50 [8] | activity at 0.028 µM [9] [%]
CCCCS(=O)(=O)Nc1nnc(-c2ccc(N3CCSCC3)c(F)c2)s1 | 21.5 | 0.05 | > 25 |  |  |  |  |  | 
O=C(Nc1nnc(-c2ccc(N3CCSCC3)c(F)c2)s1)C1CC1 | > 40 | 0.1 | > 25 |  |  |  |  |  | 
CS(=O)(=O)Nc1nnc(-c2ccc(N3CCSCC3)c(F)c2)s1 | 18.4 | 0.04 | > 25 |  |  |  |  |  | 
CC(=O)Nc1nnc(-c2ccc(N3CCSCC3)c(F)c2)s1 | 8.96 | 0.07 | > 25 | > 300 |  |  |  |  | 
CC(=O)Nc1nnc(-c2ccc(N3CCCC3)c(F)c2)s1 | 13.2 | 0.17 | > 25 |  |  |  |  |  | 
O=S(=O)(Nc1nnc(-c2ccc(N3CCSCC3)c(F)c2)s1)C1CC1 | 26 | 0.05 | > 25 |  |  |  |  |  | 
CCS(=O)(=O)Nc1nnc(-c2ccc(N3CCSCC3)c(F)c2)s1 | 15.8 | 0.03 | > 25 | > 300 | 73.5 | 4 | 35 | 54 | 
CC(=O)Nc1nnc(-c2ccc(N3CCOCC3)c(F)c2)s1 | > 40 | 1.02 | > 25 |  |  |  |  |  | 
C#CCN(C)Cc1ccccc1 [PARGYLINE] |  |  |  |  |  |  |  |  | 34
